Results: patent publication US20250262167A1, “COMPOUNDS, TARGETS AND PATHWAYS FOR MACROPHAGE MODULATION” (Massachusetts Institute of Technology, priority 2020, published 2025)

Assays:
M0 macrophages (hMDMs) = assay: Dosage response of cell shape change on M0 macrophages; format: cell-based, human
[1] = tested on: hMDMs differentiated into M2 by IL-4 plus IL-13; conditions: differentiated macrophages;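 also: human monocyte-derived macrophages held 24 h in 5 ng/mL IL-4 plus IL-13 before 24 h compound exposure, with cell shape measured from images in 384-well plates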
Method: (§1) Shown are comparison of Z-scores between 5 μM or 10 μM of compounds. […] Shown are comparison of Z-scores between 5 μM or 10 μM of compounds. […] EC and fitness of 21 M1-polarizing (triangle) and 19 M2-polarizing compounds (circle) were calculated by the Michaelis-Menten equation and plotted. Data were summarized from 3 independent experiments.
(§2) Human macrophages were seeded into optical 384-well plates. Sixteen hours later, medium in M1 plates were replaced by M1 differentiating medium (complete RPMI with 50 ng/mL IFNγ and 50 ng/mL TNFα) and medium in M2 plates by M2 differentiating medium (complete RPMI with 5 ng/mL IL-4 and 5 ng/mL IL-13). After 24 hrs cell differentiation, M1 plates (M1 macrophages) and M2 plates (M2 macrophages) were treated with M2-activating compounds and M1-activating compounds respectively for 24 hrs. Two independent experiments were performed with or without replacing differentiating medium right before treatment. Cell imaging and analysis were performed as indicated above.
(§3) To investigate whether the identified compounds could reprogram or reactivate macrophages after M1- or M2-like differentiation, we rescreened the hits on M1- or M2-activated macrophages. hMDMs were activated into M2-like macrophages by IL-4 plus IL-13 or M1-like macrophages by IFNγ plus TNFα. After removing the differentiating cytokines, M2-like macrophages were treated with each of the 166 M1-activating compounds and M1-like macrophages were treated with each of the 180 M2-activating compounds at a final concentration of either 5 μM and 10 μM. 24 hours later, cell images were taken and cell shapes were quantified. […] Dosage responses were carried out with 40 commercial available compounds (21 M1-activating and 19 M2-activating) on polarized macrophages.
(§4) We also rescreened the hits on differentiated macrophages in the presence of differentiating cytokines: either IL-4 plus IL-13 or IFNγ plus TNFα.

[2] = tested on: hMDMs differentiated into M2 by IL-4 plus IL-13; assay: Reprogramming screen and dosage response on M2-like differentiated macrophages; conditions: Homo sapiens, Macrophage, 24 h, read-out: EC;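 also: human monocyte-derived macrophages held 24 h in 5 ng/mL IL-4 plus IL-13 before 24 h compound exposure, with cell shape measured from images in 384-well plates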
Method: as §1, §2, §3, §4

PKM2 = assay: PKM enzymatic activity (colorimetric kit) in treated ImKCs; format: cell-based, mouse; conditions: ERK1/2 phosphorylation inhibited
Method: Data are presented as the mean±sd (n=4). […] Data are presented as the mean±sd (n=6).
FIGS. 29A-29B show comparison of DPI's effect on glycolysis in wild-type and Pkm^−/− BMDMs. […] FIGS. 29C-29D show activation of PKM2 and GAPDH enzymatic activity by DPI is inhibited by ERK1/2 inhibitor. ImKCs were treated with DMSO or DPI alone (500 nM) or DPI plus ERK1/2 inhibitor (SCH772984, […]) for 6 hrs and the enzymatic activities of PKM2 (c) and GAPDH (d) were measured by colorimetric assay kits (Biovision). Data are presented as the mean±sd (n=6).
The enzymatic activities of PKM and GAPDH were measured using the pyruvate kinase activity assay kit (Biovision, #K709) and GAPDH activity assay kit (Biovision, #K680) according to the manufacturer's protocols, respectively.

[3] = tested on: bone marrow derived macrophages (BMDMs); assay: Seahorse ECAR (glycolysis) in BMDMs; format: cell-based, mouse; conditions: macrophages, NOX inhibition
Method: FIGS. 21A-21I show DPI stimulates glycolysis through GPR3 and β-arrestin2. FIGS. 21A-21B show DPI-stimulated glycolysis is independent of the NOX activity. […] The mean fluorescence intensity (MFI) of 2-NBDG in cells was measured by flow cytometry and normalized to DMSO controls of wildtype BMDMs. Data are presented as the mean±sd (n=3). […] ImKCs were transfected with siRNA specific for Gpr3 or a scramble siRNA as control. […] Data are presented as the mean±sd (n=4). […] Data are presented as the mean±sd (n=12). […] Abbr2^−/− ImKC were constructed by CRISPR-Cas9-mediated gene editing. […] Data are presented as the mean±sd (n=4). […]
Specific parameters for glycolytic capacity and glycolytic reserve were calculated and summarized based on two independent experiments. […]
FIGS. 29A-29B show comparison of DPI's effect on glycolysis in wild-type and Pkm^−/− BMDMs. […] ImKCs were treated with DMSO or DPI alone (500 nM) or DPI plus ERK1/2 inhibitor (SCH772984, […]) for 6 hrs and the enzymatic activities of PKM2 (c) and GAPDH (d) were measured by colorimetric assay kits (Biovision). […]
OCR and ECAR were measured in isolated tissues or cultured ImKCs using the Seahorse XFe Extracellular Flux Analyzer (Agilent). […] Glucose levels were determined using a glucose (GO) assay kit (Sigma). […] Lactate levels were determined using a lactate assay kit (Eton Bioscience). […]

Structure (SMILES) | Max absolute Z-value (M0 macrophages (hMDMs)) | Category (M0 macrophages (hMDMs); M0 macrophages) | Category [1] | EC (M1 Z-score cutoff) [2] [µM] | DPI's effect on PKM2 enzymatic activity (PKM2) | basal level of glycolytic activity [3]
CCCCCCCCc1ccc(CCC(N)(CO)CO)cc1 [FTY720] | −11.58 | M1 (−4 for M1-activated macrophages) | M1 (−4 for M1-activated macrophages) | 0.131 |  | 
COc1cc(C(C)=O)ccc1O [apocynin] |  |  |  |  | abolished | significantly reduced
